Patent US8148391B2 (Cephalon, Inc., priority 2006, dated 2012)
Read-outs that look alike come from different tables or passages of the source. Values belong to the molecule of their own block, whether it stands above or below them.

Columns and labels:
[1] = biological target: T1, baculovirus-expressed ALK (Homo sapiens, UniProt Q9UM73); assay: ALK Kinase Assay (ELISA-type, time-resolved fluorescence); type: biochemical
T1 construct: host or cells: baculovirus expression system
Method in brief: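 Wells were coated with phospholipase C-γ at 10 μg/mL in Tris-buffered saline. Adding 30 ng/ml enzyme started the reaction, which ran at 37° C for 15 minutes before Eu-N1 PT66 antibody detection. Percent inhibition versus log10 concentration gave IC50 by variable-slope fit.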

[2] = biological target: T2, c-Met (cytoplasmic domain) (Homo sapiens, UniProt P08581); assay: c-Met Kinase Assay (same methods as for ALK, with modifications); type: biochemical
T2 construct: 10 ng/mL c-Met (cytoplasmic domain, Invitrogen Corporation #PV3143); purchased Invitrogen Corporation PV3143
T2 sequence (P08581 956-1390 limits assumed): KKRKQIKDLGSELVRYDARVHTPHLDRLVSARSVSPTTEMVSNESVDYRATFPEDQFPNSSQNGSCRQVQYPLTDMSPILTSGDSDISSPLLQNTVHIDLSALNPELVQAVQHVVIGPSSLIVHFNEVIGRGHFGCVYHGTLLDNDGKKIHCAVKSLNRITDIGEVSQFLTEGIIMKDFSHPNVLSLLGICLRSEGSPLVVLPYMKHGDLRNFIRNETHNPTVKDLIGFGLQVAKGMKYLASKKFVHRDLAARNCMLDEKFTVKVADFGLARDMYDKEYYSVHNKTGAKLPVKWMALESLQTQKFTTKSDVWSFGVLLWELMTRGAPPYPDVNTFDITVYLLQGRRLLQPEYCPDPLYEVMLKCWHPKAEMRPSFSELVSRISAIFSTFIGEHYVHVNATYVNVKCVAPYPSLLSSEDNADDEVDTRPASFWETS
Method in brief: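 IC50 values were fitted by variable-slope sigmoidal regression of percent inhibition against log compound concentration. Phosphorylation was read with Eu-N1 PT66 antibody after a 15 min, 37 °C reaction. The reaction was initiated with 10 ng/mL c-Met cytoplasmic domain on wells coated with 10 μg/mL PLC-γ in TBS.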

[3] = ALK kinase inhibition, 1 μM ATP, read-out: ALK Activity
[4] = c-Met kinase inhibition, 1 μM ATP, read-out: cMet Activity
[5] = 1 μM ATP (Km level), 30 ng/ml ALK, 37° C., 15 minutes, read-out: ALK Activity (ALK kinase inhibition, IC50 class)
[6] = 1 μM ATP (Km level), 10 ng/mL c-Met, read-out: cMet Activity (c-Met kinase inhibition, IC50 class)
[7] = 1 μM ATP (Km level), read-out: ALK Activity (ALK Kinase Inhibition, IC50)
[8] = 1 μM ATP (Km level), read-out: cMet Activity (c-Met Kinase Inhibition, IC50)
[9] = ALK kinase inhibition, 1 μM ATP (Km level), read-out: ALK Activity
[10] = c-Met kinase inhibition, 1 μM ATP (Km level), read-out: cMet Activity

T1 sequence (Q9UM73 19-1620): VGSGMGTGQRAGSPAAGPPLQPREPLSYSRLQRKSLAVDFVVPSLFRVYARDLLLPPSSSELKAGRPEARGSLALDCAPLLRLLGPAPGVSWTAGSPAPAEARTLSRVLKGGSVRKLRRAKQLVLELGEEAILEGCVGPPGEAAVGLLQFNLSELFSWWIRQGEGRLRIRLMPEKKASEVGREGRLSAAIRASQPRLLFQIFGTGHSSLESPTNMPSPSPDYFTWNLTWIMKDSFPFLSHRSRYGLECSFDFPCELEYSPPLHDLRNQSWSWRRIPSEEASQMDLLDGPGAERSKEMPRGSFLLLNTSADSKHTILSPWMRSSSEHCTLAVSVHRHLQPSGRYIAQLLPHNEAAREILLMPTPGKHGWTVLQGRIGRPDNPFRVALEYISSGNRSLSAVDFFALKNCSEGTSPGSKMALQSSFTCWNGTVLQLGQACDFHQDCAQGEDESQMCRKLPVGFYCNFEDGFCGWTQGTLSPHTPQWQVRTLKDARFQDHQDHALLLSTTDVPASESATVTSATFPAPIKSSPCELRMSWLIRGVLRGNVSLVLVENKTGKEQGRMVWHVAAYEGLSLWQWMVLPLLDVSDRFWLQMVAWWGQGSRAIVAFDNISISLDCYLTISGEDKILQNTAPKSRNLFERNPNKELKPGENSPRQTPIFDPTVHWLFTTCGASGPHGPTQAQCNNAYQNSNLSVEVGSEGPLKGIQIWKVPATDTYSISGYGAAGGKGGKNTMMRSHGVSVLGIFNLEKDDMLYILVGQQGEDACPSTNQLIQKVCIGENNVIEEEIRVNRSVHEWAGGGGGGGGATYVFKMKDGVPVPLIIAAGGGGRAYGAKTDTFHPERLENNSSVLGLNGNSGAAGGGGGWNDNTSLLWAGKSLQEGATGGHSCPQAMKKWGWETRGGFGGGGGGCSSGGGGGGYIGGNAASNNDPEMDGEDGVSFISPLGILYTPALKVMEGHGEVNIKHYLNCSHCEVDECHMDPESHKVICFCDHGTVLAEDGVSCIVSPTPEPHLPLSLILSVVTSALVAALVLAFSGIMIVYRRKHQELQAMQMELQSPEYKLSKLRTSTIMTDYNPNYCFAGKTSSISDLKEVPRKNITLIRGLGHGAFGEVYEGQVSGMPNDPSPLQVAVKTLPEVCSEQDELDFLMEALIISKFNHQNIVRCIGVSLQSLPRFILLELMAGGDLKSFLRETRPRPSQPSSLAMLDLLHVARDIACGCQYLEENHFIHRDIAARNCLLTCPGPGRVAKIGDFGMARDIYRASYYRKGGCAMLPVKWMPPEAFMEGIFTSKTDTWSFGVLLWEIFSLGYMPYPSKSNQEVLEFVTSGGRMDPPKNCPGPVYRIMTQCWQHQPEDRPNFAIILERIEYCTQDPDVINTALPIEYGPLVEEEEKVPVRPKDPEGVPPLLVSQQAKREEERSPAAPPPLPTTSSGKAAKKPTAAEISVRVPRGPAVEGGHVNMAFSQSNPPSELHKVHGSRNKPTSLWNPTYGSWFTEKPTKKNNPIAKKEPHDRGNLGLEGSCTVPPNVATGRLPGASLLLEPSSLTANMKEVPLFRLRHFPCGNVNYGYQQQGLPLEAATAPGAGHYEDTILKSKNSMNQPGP

IC50 [1, 3]: < 100 nM | IC50 [2, 4]: < 100 nM
Molecule: CCN1C(=O)CCC(C)(C)c2ccc(Nc3ncc(Cl)c(Nc4ccccc4C(=O)NC)n3)cc21 [Example 1589, 2-[5-Chloro-2-(1-ethyl-5,5-dimethyl-2-oxo-2,3,4,5-tetrahydro-1H-benzo[b]azepin-8-ylamino)-pyrimidin-4-ylamino]-N-methyl-benzamide]

IC50 [1, 5]: < 100 nM | IC50 [2, 6]: < 100 nM
Molecule: CNC(=O)c1cccc(F)c1Nc1nc(Nc2ccc3c(c2)CCN(CC(=O)N(C)C)CC3)ncc1Cl [Example 1369, 2-[5-Chloro-2-(3-dimethylcarbamoylmethyl-2,3,4,5-tetrahydro-1H-benzo[d]azepin-7-ylamino)-pyrimidin-4-ylamino]-3-fluoro-N-methyl-benzamide]

IC50 [1, 5]: < 100 nM | IC50 [2, 6]: 1000 to 10000 nM
Molecule: CCCCNC(=O)c1ccccc1Nc1nc(Nc2ccc3c(c2)C(C)(C)CCC(=O)N3)ncc1Cl [Example 1027, N-Butyl-2-[5-chloro-2-(5,5-dimethyl-2-oxo-2,3,4,5-tetrahydro-1H-benzo[b]azepin-7-ylamino)-pyrimidin-4-ylamino]-benzamide]

IC50 [1, 7]: < 100 nM | IC50 [2, 8]: 1000 to 10000 nM
Molecule: COc1c(Nc2ncc(Cl)c(N[C@H]3[C@@H](C(N)=O)[C@@H]4C=C[C@H]3C4)n2)ccc2c1CCC(NCCO)CC2 (single isomer, unassigned) [Example 697]

IC50 [1, 5]: < 100 nM | IC50 [2, 6]: 1000 to 10000 nM
Molecule: Cc1cccnc1-c1ccccc1Nc1nc(Nc2ccc3c(c2)CCC(N2CCOCC2)CC3)ncc1Cl (stereo not drawn) [Example 1020, 5-Chloro-N*4*-[2-(3-methyl-pyridin-2-yl)-phenyl]-N*2*-(7-morpholin-4-yl-6,7,8,9-tetrahydro-5H-benzocyclohepten-2-yl)-pyrimidine-2,4-diamine]

IC50 [1, 9]: < 100 nM | IC50 [2, 10]: 100 to 1000 nM
Molecule: CCN1CCc2ccc(Nc3ncc(Cl)c(N[C@@H]4CCCC[C@H]4NS(C)(=O)=O)n3)cc2CC1 [Example 441, N-{(1R,2R)-2-[5-Chloro-2-(3-ethyl-2,3,4,5-tetrahydro-1H-benzo[d]azepin-7-ylamino)-pyrimidin-4-ylamino]-cyclohexyl}methanesulfonamide]

IC50 [1, 9]: < 100 nM | IC50 [2, 10]: 1000 to 10000 nM
Molecule: CCN1CC2CC(C1)c1cc(Nc3ncc(Cl)c(Nc4ccccc4S(=O)(=O)NC)n3)ccc12 (stereo not drawn) [Example 157, 2-[5-Chloro-2-(10-ethyl-10-aza-tricyclo[6.3.1.0*2,7*]dodeca-2,4,6-trien-4-ylamino)-pyrimidin-4-ylamino]-N-methyl-benzenesulfonamide]

IC50 [1, 5]: < 100 nM | IC50 [2, 6]: > 10000 nM
Molecule: COc1cc2c(cc1Nc1ncc(Cl)c(Nc3ccccc3OC)n1)CCN(C(=O)CN(C)C)CC2 [Example 1131, 1-{7-[5-Chloro-4-(2-methoxy-phenylamino)-pyrimidin-2-ylamino]-8-methoxy-1,2,4,5-tetrahydro-benzo[d]azepin-3-yl}-2-dimethylamino-ethanone]

IC50 [1, 5]: < 100 nM | IC50 [2, 6]: > 10000 nM
Molecule: CCN1C(=O)[C@H](N2CCOCC2)CCc2c1ccc(Nc1ncc(Cl)c(N[C@H]3[C@@H](C(N)=O)[C@@H]4C=C[C@H]3C4)n1)c2OC (single isomer, unassigned) [Example 1344]

IC50 [1, 3]: 1000 to 10000 nM | IC50 [2, 4]: 100 to 1000 nM
Molecule: 2-[5-Chloro-2-(3-methyl-4-oxo-2,3,4,5-tetrahydro-1H-benzo[d]azepin-7-ylamino)-pyrimidin-4-ylamino]-3,5,N-trimethyl-benzamide [Example 1818]

IC50 [1, 7]: < 100 nM | IC50 [2, 8]: > 10000 nM
Molecule: COc1cc2c(cc1Nc1ncc(F)c(Nc3ccc(N4CCOCC4)cc3OC)n1)CCN(CC(=O)N(C)C)CC2 [Example 808, 2-{7-[5-Fluoro-4-(2-methoxy-4-morpholin-4-yl-phenylamino)-pyrimidin-2-ylamino]-8-methoxy-1,2,4,5-tetrahydro-benzo[d]azepin-3-yl}-N,N-dimethyl-acetamide]

IC50 [1, 9]: < 100 nM | IC50 [2, 10]: > 10000 nM
Molecule: CCC1C(=O)N(CC)CCc2cc(Nc3ncc(Cl)c(NC4CCCCC4NS(C)(=O)=O)n3)c(OC)cc21 [Example 151, N-{(1R,2R)-2-[5-Chloro-2-(1,3-diethyl-8-methoxy-2-oxo-2,3,4,5-tetrahydro-1H-benzo[d]azepin-7-ylamino)-pyrimidin-4-ylamino]-cyclohexyl-methanesulfonamide]
